# Assay results reported in patent US8247612B2, “Organic sulfur compound and its use for controlling harmful arthropod” (Sumitomo Chemical Company, Limited, priority 2007, dated 2012).
# Experiments:
# Type in all cases: in vivo
# Culex pipiens pallens = assay: Test Example 4: larvae in treated water, death rate of Culex pipiens pallens; settings: 24 h, active ingredient concentration 3.5 ppm in water, 20 last-instar larvae, after one day
# Experimental: Preparations of the present compounds (1), (2), (3), (4), (5), (6), (9), (10), (11), (12), (14), (15), (16), (17), (19), (20), (22), (23), (24), (26), (27), (28), (29), (30) and (31) obtained according to Formulation Example 36 were diluted so that the active ingredient concentration was 500 ppm to obtain test solutions. To 100 mL of ion-exchanged water, 0.7 ml of the test solution was added (active ingredient concentration: 3.5 ppm). Into the solution, 20 last-instar larvae of Culex pipiens pallens were released. After one day, the number of surviving Culex pipiens pallens was examined and the death rate of the pest was calculated. As a result, in treatments with the present compounds (1), (2), (3), (4), (5), (6), (9), (10), (11), (12), (14), (15), (16), (17), (19), (20), (22), (23), (24), (26), (27), (28), (29), (30) and (31), the death rate of the pest was 90% or more.
# Musca domestica = assay: Test Example 2: treated filter paper with sucrose bait, death rate of Musca domestica; settings: 500 ppm test solution, 0.7 ml on filter paper, 10 female imagoes, after 24 hours
# Experimental: Preparations of the present compounds (2), (3), (5), (6), (9), (10), (11), (12), (13), (14), (15), (16), (17), (19), (20), (24), (25), (26), (28), (29), (30) and (31) obtained according to Formulation Example 36 were diluted so that the active ingredient concentration was 500 ppm to obtain test solutions.
# (§1) A filter paper having a diameter of 5.5 cm was spread on the bottom of a polyethylene cup having a diameter of 5.5 cm and 0.7 ml of the test solution was added dropwise onto the filter paper. As a bait 30 mg of sucrose was uniformly placed on the filter paper. Into the polyethylene cup, 10 female imagoes of Musca domestica were released and the cup was sealed with a lid. After 24 hours, the number of surviving Musca domestica was examined and the death rate of the pest was calculated.
# As a result, in treatments with the present compounds (2), (3), (5), (6), (9), (10), (11), (12), (13), (14), (15), (16), (17), (19), (20), (24), (25), (26), (28), (29), (30) and (31), the death rate of the pest was 70% or more.
# Blattalla germanica = assay: Test Example 3: treated filter paper with sucrose bait, death rate of Blattalla germanica; settings: 144 h; 500 ppm test solution, 0.7 ml on filter paper; 2 male imagoes; after 6 days
# Experimental: Preparations of the present compounds (2), (3), (5), (6), (10), (11), (12), (14), (15), (16), (17), (19), (20), (24), (25), (26), (29), (30) and (31) obtained according to Formulation Example 36 were diluted so that the active ingredient concentration was 500 ppm to obtain test solutions.
# as §1, with “2 male” for “10 female”, “Blattalla germanica” for “Musca domestica”, “6 days,” for “24 hours,”
# As a result, in treatments with the present compounds (2), (3), (5), (6), (10), (11), (12), (14), (15), (16), (17), (19), (20), (24), (25), (26), (29), (30) and (31), the death rate of the pest was 100%.
# [1] = test system: Haemaphysalis longicornis; assay: Test Example 5: treated filter paper pouch, death rate of ticks; settings: filter paper treated with 100 mg/m^2; non-blood-sucking nymphal ticks, 10 ticks/group; after 2 days
# Experimental: Five milligrams of any one of the present compounds (3), (10), (14), (15), (16) and (17) was dissolved in 10 mL of acetone. One milliliter of the acetone solution was uniformly applied on one side of a filter paper (TOYO No. 2; 5×10 cm), so that the filter paper was treated with 100 mg/m^2 of the present compound. After drying, the filter paper was folded in two and its edges were clipped to make a pouch. Non-blood-sucking nymphal ticks (Haemaphysalis longicornis, 10 ticks/group) were put into the pouch, and the pouch was sealed with clips. After 2 days, the number of surviving ticks was examined and the death rate was calculated. As a result, in treatments with the present compounds (3), (10), (14), (15), (16) and (17), the death rate of the tick was 90%.
Structure (SMILES),pest or weed control at 3.5 ppm (Culex pipiens pallens) [%],pest or weed control at 500 ppm (Musca domestica) [%],pest or weed control at 500 ppm (Blattalla germanica) [%],death rate of the tick [1] [%]
"COC(=O)C(CCC(C)C(F)(F)F)S(=O)(=O)CCC(F)(F)F (stereo not shown) [present compound (1), methyl 6,6,6-trifluoro-5-methyl-2-(3,3,3-trifluoropropylsulfonyl)hexanoate]",≥ 90,,,
"COC(=O)C(Cl)(CCC(C)C(F)(F)F)S(=O)(=O)CCC(F)(F)F (stereo not shown) [present compound (2), methyl 2-chloro-6,6,6-trifluoro-5-methyl-2-(3,3,3-trifluoropropylsulfonyl)hexanoate]",≥ 90,≥ 70,100,
"CC(CCC(Cl)(C(N)=O)S(=O)(=O)CCC(F)(F)F)C(F)(F)F (stereo not shown) [present compound (3), 2-chloro-6,6,6-trifluoro-5-methyl-2-(3,3,3-trifluoropropylsulfonyl)hexanamide]",≥ 90,≥ 70,100,90
"CCC(CCC(C(=O)OC)S(=O)(=O)CCC(F)(F)F)C(F)(F)F (stereo not shown) [present compound (4), methyl 5-trifluoromethyl-2-(3,3,3-trifluoropropylsulfonyl)heptanoate]",≥ 90,,,
"CCC(CCC(Cl)(C(=O)OC)S(=O)(=O)CCC(F)(F)F)C(F)(F)F (stereo not shown) [present compound (5), methyl 2-chloro-5-trifluoromethyl-2-(3,3,3-trifluoropropylsulfonyl)heptanoate]",≥ 90,≥ 70,100,
"CCC(CCC(Cl)(C(N)=O)S(=O)(=O)CCC(F)(F)F)C(F)(F)F (stereo not shown) [present compound (6), 2-chloro-5-trifluoromethyl-2-(3,3,3-trifluoropropylsulfonyl)heptanamide]",≥ 90,≥ 70,100,
"CC(C)(C)C(CCC(Cl)(C(N)=O)S(=O)(=O)CCC(F)(F)F)C(F)(F)F (stereo not shown) [present compound (9), 2-chloro-6,6-dimethyl-5-trifluoromethyl-2-(3,3,3-trifluoropropylsulfonyl)heptanamide]",≥ 90,≥ 70,,
"CCC(CCC(F)(C(=O)OC)S(=O)(=O)CCC(F)(F)F)C(F)(F)F (stereo not shown) [present compound (11), methyl 2-fluoro-5-(trifluoromethyl)-2-(3,3,3-trifluoropropylsulfonyl)heptanoate]",≥ 90,≥ 70,100,
"CCC(CCC(F)(C(N)=O)S(=O)(=O)CCC(F)(F)F)C(F)(F)F (stereo not shown) [present compound (12), 2-fluoro-5-(trifluoromethyl)-2-(3,3,3-trifluoropropylsulfonyl)heptanamide]",≥ 90,≥ 70,100,
"CCC(CCC(C)(C(N)=O)S(=O)(=O)CCC(F)(F)F)C(F)(F)F (stereo not shown) [present compound (13), 2-methyl-5-(trifluoromethyl)-2-(3,3,3-trifluoropropylsulfonyl)heptanamide]",,≥ 70,,
"COC(=O)C(Cl)(CCC(C(C)C)C(F)(F)F)S(=O)(=O)CCC(F)(F)F (stereo not shown) [present compound (19), methyl 2-chloro-6-methyl-5-(trifluoromethyl)-2-(3,3,3-trifluoropropylsulfonyl)heptanoate]",≥ 90,≥ 70,100,
"CC(C)C(CCC(Cl)(C(N)=O)S(=O)(=O)CCC(F)(F)F)C(F)(F)F (stereo not shown) [present compound (20), 2-chloro-6-methyl-5-(trifluoromethyl)-2-(3,3,3-trifluoropropylsulfonyl)heptanamide]",≥ 90,≥ 70,100,
"CCCC(CCC(Cl)(C(=O)OC)S(=O)(=O)CCC(F)(F)F)C(F)(F)F (stereo not shown) [present compound (22), methyl 2-chloro-5-(trifluoromethyl)-2-(3,3,3-trifluoropropylsulfonyl)octanoate]",≥ 90,,,
"CCCC(CCC(Cl)(C(N)=O)S(=O)(=O)CCC(F)(F)F)C(F)(F)F (stereo not shown) [present compound (23), 2-chloro-5-(trifluoromethyl)-2-(3,3,3-trifluoropropylsulfonyl)octanamide]",≥ 90,,,
"COC(=O)C(CCC(OC)C(F)(F)F)S(=O)(=O)CCC(F)(F)F (stereo not shown) [present compound (24), methyl 6,6,6-trifluoro-5-methoxy-2-(3,3,3-trifluoropropylsulfonyl)hexanoate]",≥ 90,≥ 70,100,
"COC(=O)C(Cl)(CCC(OC)C(F)(F)F)S(=O)(=O)CCC(F)(F)F (stereo not shown) [present compound (25), methyl 2-chloro-6,6,6-trifluoro-5-methoxy-2-(3,3,3-trifluoropropylsulfonyl)hexanoate]",,≥ 70,100,
"COC(CCC(Cl)(C(N)=O)S(=O)(=O)CCC(F)(F)F)C(F)(F)F (stereo not shown) [present compound (26), 2-chloro-6,6,6-trifluoro-5-methoxy-2-(3,3,3-trifluoropropylsulfonyl)hexanamide]",≥ 90,≥ 70,100,
"COC(=O)C(CCC(SC)C(F)(F)F)S(=O)(=O)CCC(F)(F)F (stereo not shown) [present compound (27), methyl 6,6,6-trifluoro-5-methylthio-2-(3,3,3-trifluoropropylsulfonyl)hexanoate]",≥ 90,,,
"COC(=O)C(Cl)(CCC(SC)C(F)(F)F)S(=O)(=O)CCC(F)(F)F (stereo not shown) [present compound (28), methyl 2-chloro-6,6,6-trifluoro-5-methylthio-2-(3,3,3-trifluoropropylsulfonyl)hexanoate]",≥ 90,≥ 70,,
"CSC(CCC(Cl)(C(N)=O)S(=O)(=O)CCC(F)(F)F)C(F)(F)F (stereo not shown) [present compound (29), 2-chloro-6,6,6-trifluoro-5-methylthio-2-(3,3,3-trifluoropropylsulfonyl)hexanamide]",≥ 90,≥ 70,100,
"CSC(CCC(C#N)S(=O)(=O)CCC(F)(F)F)C(F)(F)F (stereo not shown) [present compound (30), 6,6,6-trifluoro-5-methylthio-2-(3,3,3-trifluoropropylsulfonyl)hexanenitrile]",≥ 90,≥ 70,100,
"CC(CCC(Cl)(C(N)=O)S(=O)(=O)CCC(F)(F)F)C(F)(F)C(F)(F)F (stereo not shown) [present compound (31), 2-chloro-6,6,7,7,7-pentafluoro-5-methyl-2-(3,3,3-trifluoropropylsulfonyl)heptanamide]",≥ 90,≥ 70,100,
